According to PubChem BioAssay (NCI):
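Protocol summary: plate cells (96-well), add compound at 5 concentrations, incubate 48 h, interpolate endpoints linearly. The concentration for full growth arrest is given as TGI.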

Columns and labels:
Assay in all cases: NCI tumour cell line growth inhibition, 48 h
SNB-19 CNS = test system: SNB-19 CNS
SK-MEL-28 melanoma = test system: SK-MEL-28 melanoma
HS 578T breast = test system: HS 578T breast
U251 CNS = test system: U251 CNS
HOP-62 NSCLC = test system: HOP-62 NSCLC
TK-10 renal = test system: TK-10 renal
OVCAR-8 ovarian = test system: OVCAR-8 ovarian
UO-31 renal = test system: UO-31 renal
SNB-75 CNS = test system: SNB-75 CNS
CAKI-1 renal = test system: CAKI-1 renal
OVCAR-4 ovarian = test system: OVCAR-4 ovarian
UACC-62 melanoma = test system: UACC-62 melanoma
BT-549 breast = test system: BT-549 breast
COLO 205 colon = test system: COLO 205 colon
NCI-H460 lung = test system: NCI-H460 lung
DU-145 prostate = test system: DU-145 prostate
HOP-92 NSCLC = test system: HOP-92 NSCLC

Compound	TGI (SNB-19 CNS) [µM]	TGI (SK-MEL-28 melanoma) [µM]	TGI (HS 578T breast) [µM]	TGI (U251 CNS) [µM]	TGI (HOP-62 NSCLC) [µM]	TGI (TK-10 renal) [µM]	TGI (OVCAR-8 ovarian) [µM]	TGI (UO-31 renal) [µM]	TGI (SNB-75 CNS) [µM]	TGI (CAKI-1 renal) [µM]	TGI (OVCAR-4 ovarian) [µM]	TGI (UACC-62 melanoma) [µM]	TGI (BT-549 breast) [µM]	TGI (COLO 205 colon) [µM]	TGI (NCI-H460 lung) [µM]	TGI (DU-145 prostate) [µM]	TGI (HOP-92 NSCLC) [µM]
COc1ccc(-n2nnc3c(C#N)c(-c4ccccc4)c(C)n3c2=O)cc1	> 100	> 100	> 100	> 100	> 100	> 100	> 100	> 100	72.1	> 100	> 100	> 100	> 100	> 100	> 100	> 100	> 100
O=C1NCC2(CCN(Cc3ccccc3)CC2)N1	> 100	> 100	> 100	> 100	> 100	> 100	> 100	> 100	> 100	> 100	> 100	> 100	> 100	> 100	> 100	> 100	> 100
CN(C)CCSC(=Nc1ccccc1)N1C=COC=C1	> 100	40.4	> 100	> 100	> 100	> 100	> 63.3	> 100	> 100	> 100	> 62	30.9	> 100	> 72.2	> 100	> 100	73.2
c1ccc2c(c1)ccc1ncccc12	> 100	> 100	> 100	> 100	> 100	> 100	> 100	> 100	> 100	> 100	> 100	> 100	> 100	> 100	> 100	> 100	> 100
COc1cc(CNc2nc3ccccc3nc2-c2cccs2)cc(OC)c1OC	–	> 100	74.8	> 100	> 100	> 100	> 100	25	> 100	28.4	23.4	62.5	12.9	> 100	37.5	> 100	10.1
CCc1ccc(CCC(=O)O)nc1	> 100	> 100	> 100	> 100	> 100	> 100	> 100	> 100	> 100	> 100	> 100	> 100	> 100	> 100	> 100	> 100	> 100
COc1ccc(C(=O)/C=C2\c3ccccc3C(=O)N2C)cc1	> 100	> 100	> 100	> 100	> 100	> 100	> 100	> 100	> 100	> 100	> 100	> 100	> 100	> 100	> 100	> 100	75.7
Cc1c(C)c(S(=O)(=O)N(CCCCCN)OCCCN)c(C)c2c1OC(C)(C)CC2	24.8	65.4	28.4	> 36.9	25.1	37.8	> 50	41.1	25.7	> 59.1	13.3	30.3	29.8	> 74.8	19.7	> 70.5	67.6
O/N=C(\C=N\O)c1ccc2c(c1)Sc1ccccc1O2	67.8	75.3	> 100	98.7	36.8	84.1	74.8	54	50.3	61.1	74.2	37.7	40.7	54.3	60.5	> 100	36.8
OCCOCCN1CCN(c2nc(N3CCCC3)c3nc(Cl)c(NCc4ccccc4)nc3n2)CC1	29.8	30.2	43.5	25.5	26.7	25	32.2	21.7	36.5	31.1	30.8	27.3	29.1	21.7	24.7	25.3	26.2
COc1cc(C2SCC(=O)N2c2ccc(-c3ccc(-n4c(-c5ccccc5)nc5ccccc5c4=O)cc3)cc2)ccc1O (stereo not drawn)	> 100	> 100	> 100	> 100	> 100	> 100	> 100	> 100	49.8	> 100	> 100	> 100	> 100	> 100	> 100	> 100	74.1
COc1ccc(-c2nc(N)c(C#N)c3c2CCSc2ccc(C)cc2-3)cc1OC	> 83.5	> 81.8	52.9	> 100	> 100	> 100	> 73.6	27.2	71.3	> 70.5	> 93.8	47.1	70.8	26.6	> 61.5	> 67.2	55
CC(=O)Nc1ccc2c3c(cc(O)c2c1)N(C(=O)CCCC(=O)Nc1ccc2c4c(cc(O)c2c1)N(C(=O)OC(C)(C)C)CC4CCl)CC3CCl (stereo not drawn)	> 15	> 13	> 12.1	4.38	> 25.2	35	> 50	> 50	12.6	> 50	6.4	2.31	3.75	6.05	21.5	> 50	> 15.1
CC(Oc1ccccc1)C(=O)NN (stereo not drawn)	> 100	> 100	> 100	> 100	> 100	> 100	> 100	> 100	> 100	> 100	> 100	> 100	> 100	> 100	> 100	> 100	> 100
NCCCCC(N)C(=O)N1CCN(c2nc(N3CCCC3)c3nc(Cl)c(NCc4ccccc4)nc3n2)CC1 (stereo not drawn)	33.2	40.5	47.4	36.5	29.3	35.6	31.5	32.9	32.9	91.8	50.8	36.7	34.4	33.1	34.4	33.5	25.8
COc1ccc(OC)c(C2CCCc3c2cnc2nc(N)nc(N)c32)c1 (stereo not drawn)	> 100	> 100	> 100	> 100	> 100	> 100	> 100	> 100	41	> 100	> 100	> 100	> 100	> 100	> 100	> 100	> 100
Brc1ccccc1/C=C\C1(c2ccccc2)OCCO1	28.9	46.9	17.3	18.4	27.7	31.7	24.5	20	28.6	16.3	14.8	28	39	37.7	34.2	26.7	46.9
COc1ccc(N2C(=O)CSC2c2cc3cc(Br)ccc3nc2Cl)cc1 (stereo not drawn)	> 50	> 50	> 50	–	> 50	> 50	> 50	> 50	> 50	> 50	> 50	> 50	> 50	> 50	> 50	> 50	> 50
CSc1c(CC(=O)O)n(Cc2ccccc2)c2ccccc12	> 100	> 100	> 100	> 100	> 100	> 100	> 100	> 100	> 100	> 100	> 100	> 100	> 100	> 100	> 100	> 100	> 100
Nc1ccn([C@H]2CO[C@@H](CO)O2)c(=O)n1	> 100	> 100	> 100	> 100	> 57.9	> 100	> 100	> 75.1	> 100	23	> 100	> 46.4	> 100	> 100	> 100	> 22.6	43.8
COCC[N+](CCNC(=O)c1cccc2c(N)c3cccc(C)c3nc12)(CCOC)Cc1ccc([N+](=O)[O-])cc1	> 100	52	39.3	> 100	> 100	> 100	> 100	> 100	61.7	> 100	> 100	42.5	64.5	43	29.5	59.1	94.6
Oc1ccc2ccccc2c1-c1c(Nc2ccccc2)ccc2ccccc12	37.4	27.4	41.1	52	30.1	32.1	33.8	29.2	31.9	28.1	25.4	33.6	30.1	38	39.9	32.3	> 46.5
CN(C)C(=S)N/N=C\C(=N/NC(=S)N(C)C)c1ccccc1	> 100	> 100	> 29.9	> 100	> 100	> 100	> 100	> 100	> 53.7	> 100	> 100	> 100	> 100	> 100	> 100	> 22.7	92.1
Cc1nc2c(=O)[nH]c3ccccc3c2o1	> 100	> 100	> 100	> 100	> 100	> 100	> 100	> 100	> 100	> 100	> 100	> 100	> 100	> 100	> 100	> 100	> 100
O=c1n(CCCN2CCN(c3cccc(Cl)c3)CC2)nc2n1-c1ccc3ccccc3c1SC2	> 100	> 100	> 100	> 100	> 100	> 100	> 100	–	> 100	> 100	> 100	> 100	> 100	> 100	> 100	> 100	> 100
CC/C(Cl)=N\OC(=O)Nc1ccccc1OC(F)(F)F	53.9	41.5	> 68.2	> 57.8	37.3	23.8	35.9	18.2	48.2	3.33	41.6	37.1	11.5	3.79	44.2	33.9	6.15
Cc1[nH]c2ncn3ncnc3c2c1Cc1ccccc1	> 100	> 100	> 100	> 100	> 100	> 100	> 100	> 100	> 100	> 100	> 100	> 100	> 100	> 100	> 100	> 100	> 100
COc1ccc(/C=C/C(=O)c2nc3ccccc3[nH]2)cc1	77.3	65.6	> 77.2	37.3	> 88.1	47.2	51.1	34.6	57.4	> 100	60.1	38.9	55.2	26	47.5	45.6	35.6
